Laboratory results reported in publication PMC11628255, “Interference of metal ions on the bioluminescent signal of firefly, Renilla, and NanoLuc luciferases in high-throughput screening assays” (Frontiers in Chemistry, 2024).

Target: T1, firefly luciferase enzyme (FLuc) (Photinus pyralis, UniProt P08659)
T1 construct: commercial purified enzyme (Promega E1701)
Assay: bioluminescence read-out, 384-well plate
Assay type: biochemical
Conditions: 10 µM ATP with 10 µM D-luciferin, 5 mM MgSO4; ATP and Mg needed for signal

T1 sequence (P08659 whole entry): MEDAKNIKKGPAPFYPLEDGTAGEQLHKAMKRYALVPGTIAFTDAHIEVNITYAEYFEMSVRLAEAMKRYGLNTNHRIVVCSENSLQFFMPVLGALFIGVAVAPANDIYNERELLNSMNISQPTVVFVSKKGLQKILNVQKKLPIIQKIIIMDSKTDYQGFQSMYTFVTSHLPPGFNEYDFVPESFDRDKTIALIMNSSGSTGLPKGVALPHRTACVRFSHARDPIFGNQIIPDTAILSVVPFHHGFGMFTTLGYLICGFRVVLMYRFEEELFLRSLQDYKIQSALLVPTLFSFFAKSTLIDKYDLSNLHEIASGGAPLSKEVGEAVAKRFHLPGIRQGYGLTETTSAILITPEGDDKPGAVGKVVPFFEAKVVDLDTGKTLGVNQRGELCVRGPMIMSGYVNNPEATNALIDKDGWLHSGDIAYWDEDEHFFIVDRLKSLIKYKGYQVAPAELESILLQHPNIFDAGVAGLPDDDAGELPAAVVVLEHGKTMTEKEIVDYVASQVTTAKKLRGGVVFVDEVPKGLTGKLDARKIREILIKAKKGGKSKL

Nc1ncnc2c1ncn2[C@@H]1O[C@H](COP(=O)(O)OP(=O)(O)OP(=O)(O)O)[C@@H](O)[C@H]1O [ATP]
bioluminescence read-out, 384-well plate: both ATP and Mg still need to be present in the FLuc reaction buffer
